The target in data set [1] is acetylcholinesterase (AChE) (Electrophorus electricus, UniProt O42275). Briefly: Inhibition of electric eel AchE at 100 uM using acetylthiocholine as substrate by Ellman's method relative to control. The conditions noted are these: electric eel AChE enzyme, probe acetylthiocholine.
Data set [2] deals with Cholinesterase (Equus caballus, UniProt P81908).
Description: Inhibition of equine BuchE using butyrylthiocholine as substrate by Ellman's method
For data set [3], the target named is Acetylcholinesterase (Electrophorus electricus, UniProt O42275). The data set is described as follows: Inhibition of electric eel AchE using acetylthiocholine as substrate by Ellman's method.
Chain of Acetylcholinesterase (Electrophorus electricus, UniProt O42275) (O42275 whole entry): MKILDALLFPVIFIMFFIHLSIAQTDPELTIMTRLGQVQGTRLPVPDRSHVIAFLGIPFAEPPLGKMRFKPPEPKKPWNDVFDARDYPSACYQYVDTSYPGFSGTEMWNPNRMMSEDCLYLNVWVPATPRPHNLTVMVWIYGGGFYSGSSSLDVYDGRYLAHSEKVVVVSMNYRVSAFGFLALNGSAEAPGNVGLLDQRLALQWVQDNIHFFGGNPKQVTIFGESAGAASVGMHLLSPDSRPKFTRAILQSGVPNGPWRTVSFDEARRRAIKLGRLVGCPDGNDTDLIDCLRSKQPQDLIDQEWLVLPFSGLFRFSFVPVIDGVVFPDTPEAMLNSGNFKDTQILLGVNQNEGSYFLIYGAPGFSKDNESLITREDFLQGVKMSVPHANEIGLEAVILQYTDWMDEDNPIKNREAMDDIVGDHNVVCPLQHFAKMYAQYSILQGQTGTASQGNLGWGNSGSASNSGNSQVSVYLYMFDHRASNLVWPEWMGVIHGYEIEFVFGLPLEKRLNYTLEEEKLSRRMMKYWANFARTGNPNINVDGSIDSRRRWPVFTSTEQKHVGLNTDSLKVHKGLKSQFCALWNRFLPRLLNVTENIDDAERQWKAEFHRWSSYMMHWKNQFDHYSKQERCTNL
The nature of data set [4]: Selectivity index, ratio of IC50 for equine BuchE using butyrylthiocholine as substrate by Ellman's method to IC50 for human BuchE.
The nature of data set [5]: Cytotoxicity against human SH-SY5Y cells by MTT assay. In kind it is cell-based. (In general: Tetrazolium dyes change colour on reduction, which living cells bring about.)
Data set [6] concerns the target Cholinesterase (Homo sapiens, UniProt P06276). Briefly: Inhibition of human BuchE.
Data set [7] addresses Acetylcholinesterase (Homo sapiens, UniProt P22303). Briefly: Inhibition of human AchE.
For data set [8], the target named is acetylcholinesterase (AChE) (Homo sapiens, UniProt P22303). The data set is described as follows: Inhibition of human AchE at 100 uM relative to control. The conditions noted are these: human AChE enzyme.
Chain of acetylcholinesterase (AChE) (Homo sapiens, UniProt P22303) (P22303 whole entry): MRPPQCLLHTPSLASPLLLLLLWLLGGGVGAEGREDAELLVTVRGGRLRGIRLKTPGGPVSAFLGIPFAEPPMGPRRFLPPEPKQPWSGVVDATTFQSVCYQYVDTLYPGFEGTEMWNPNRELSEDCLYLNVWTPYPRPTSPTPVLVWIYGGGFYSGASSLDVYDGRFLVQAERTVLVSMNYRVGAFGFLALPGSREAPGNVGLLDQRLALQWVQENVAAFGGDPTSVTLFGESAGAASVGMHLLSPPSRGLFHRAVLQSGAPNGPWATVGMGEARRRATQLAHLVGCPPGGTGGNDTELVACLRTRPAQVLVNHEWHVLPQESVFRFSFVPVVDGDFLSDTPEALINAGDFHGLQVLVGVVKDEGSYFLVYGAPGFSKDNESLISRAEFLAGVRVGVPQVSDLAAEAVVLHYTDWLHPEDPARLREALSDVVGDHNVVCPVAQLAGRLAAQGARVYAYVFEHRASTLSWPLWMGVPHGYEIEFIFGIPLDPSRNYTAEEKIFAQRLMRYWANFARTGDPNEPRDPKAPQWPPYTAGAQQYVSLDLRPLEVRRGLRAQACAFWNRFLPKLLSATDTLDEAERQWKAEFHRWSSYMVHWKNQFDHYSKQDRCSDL

A word on the inhibition: it is the change of the read-out against control, counted positive when it falls. Low values mean little suppression, high ones strong suppression. As usually defined, the IC50 is the midpoint of a concentration-inhibition curve. High values mean lower potency, low ones higher potency. As a reminder, the CC50 is the concentration giving 50% cytotoxicity. A high value points to better tolerance by the cells.

Chain of acetylcholinesterase (AChE) (Electrophorus electricus, UniProt O42275) (O42275 whole entry): as the sequence (O42275 whole entry) above
Chain of Cholinesterase (Equus caballus, UniProt P81908) (P81908 whole entry): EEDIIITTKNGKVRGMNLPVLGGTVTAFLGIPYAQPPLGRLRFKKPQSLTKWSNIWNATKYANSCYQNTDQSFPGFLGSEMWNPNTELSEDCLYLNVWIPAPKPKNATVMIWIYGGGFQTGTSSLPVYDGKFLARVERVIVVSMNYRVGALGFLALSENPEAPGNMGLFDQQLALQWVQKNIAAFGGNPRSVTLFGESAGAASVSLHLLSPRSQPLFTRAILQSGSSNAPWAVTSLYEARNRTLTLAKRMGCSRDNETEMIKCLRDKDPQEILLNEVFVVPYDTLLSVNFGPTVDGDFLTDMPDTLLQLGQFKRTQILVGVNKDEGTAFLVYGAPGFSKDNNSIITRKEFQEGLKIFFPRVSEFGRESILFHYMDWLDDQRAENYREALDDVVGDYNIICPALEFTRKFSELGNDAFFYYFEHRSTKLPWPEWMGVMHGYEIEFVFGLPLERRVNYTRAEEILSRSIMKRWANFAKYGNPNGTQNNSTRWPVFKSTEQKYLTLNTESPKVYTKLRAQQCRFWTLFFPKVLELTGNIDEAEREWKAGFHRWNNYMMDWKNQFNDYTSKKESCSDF
Chain of Cholinesterase (Homo sapiens, UniProt P06276) (P06276 whole entry): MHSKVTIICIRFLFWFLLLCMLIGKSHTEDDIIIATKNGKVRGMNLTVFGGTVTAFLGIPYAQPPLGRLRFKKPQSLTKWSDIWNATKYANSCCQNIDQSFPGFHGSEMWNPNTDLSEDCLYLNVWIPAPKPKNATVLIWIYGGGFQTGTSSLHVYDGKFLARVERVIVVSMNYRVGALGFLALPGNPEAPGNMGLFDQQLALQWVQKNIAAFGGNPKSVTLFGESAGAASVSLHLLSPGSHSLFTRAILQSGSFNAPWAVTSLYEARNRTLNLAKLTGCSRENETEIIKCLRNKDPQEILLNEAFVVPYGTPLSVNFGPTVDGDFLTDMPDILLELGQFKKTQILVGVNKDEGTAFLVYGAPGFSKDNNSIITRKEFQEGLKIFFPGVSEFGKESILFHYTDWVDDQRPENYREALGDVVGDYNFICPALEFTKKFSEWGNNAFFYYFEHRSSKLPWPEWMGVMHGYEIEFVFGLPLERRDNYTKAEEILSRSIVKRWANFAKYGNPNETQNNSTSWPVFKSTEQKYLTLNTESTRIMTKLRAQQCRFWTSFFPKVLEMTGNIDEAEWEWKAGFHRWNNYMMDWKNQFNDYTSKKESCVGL
Chain of Acetylcholinesterase (Homo sapiens, UniProt P22303) (P22303 whole entry): as the sequence (P22303 whole entry) above

In data set [1], `O=C1CCCC2=C1C(c1ccc(OCc3ccccc3)cc1)C1=C(CCCC1=O)N2` displayed an inhibition at 100 µM of 24%. Also, the values for the IC50 against Cholinesterase [2] and against Acetylcholinesterase [3] were 6.01 µM and > 100 µM, respectively.

`COc1cc(C2C3=C(CCCC3=O)N(C)C3=C2C(=O)CCC3)ccc1OCc1ccc(F)cc1`: testing at 100 µM in data set [1] gave an inhibition of 33%. Further, the IC50 against Cholinesterase [2] is 2.44 µM; against Acetylcholinesterase [3], > 100 µM.

In the case of `COc1cc(C2C3=C(CCCC3=O)NC3=C2C(=O)CCC3)ccc1OCc1ccc(F)cc1`, 100 µM produced 27% inhibition in data set [1]. Moreover, in data set [4], the Ratio IC50 was 2.5. In addition, the IC50 at Cholinesterase [2] is 0.242 µM; on Acetylcholinesterase [3], > 100 µM; at Cholinesterase [6], 0.098 µM; at Acetylcholinesterase [7], 125 µM. Further, the CC50 in data set [5] is ≥ 100 µM.

`CN1C2=C(C(=O)CCC2)C(c2ccc(OCc3ccc(Cl)cc3)c(Cl)c2)C2=C1CCCC2=O` yielded an inhibition at 100 µM in data set [1] of 23%. The results for the IC50 on Cholinesterase [2] and against Acetylcholinesterase [3] were 1.66 µM and > 100 µM, respectively.

Take `CCOc1cc(C2C3=C(CCCC3=O)NC3=C2C(=O)CCC3)ccc1OCc1ccccc1`: 100 µM produced 19% inhibition in data set [1]. Besides, the figures for the IC50 against Cholinesterase [2] and against Acetylcholinesterase [3] were 0.752 µM and > 100 µM, respectively.

In the case of `COc1cc(C2C3=C(CCCC3=O)NC3=C2C(=O)CCC3)ccc1OS(=O)(=O)c1ccc(C)cc1`, the inhibition at 100 µM in data set [1] is 15%. In addition, the figures for the IC50 at Cholinesterase [2] and against Acetylcholinesterase [3] were 0.959 µM and > 100 µM, respectively.

As for `O=C1CCCC2=C1C(c1ccc(OCc3cccc(F)c3)c(Br)c1)C1=C(CCCC1=O)N2`, the inhibition at 100 µM in data set [1] amounted to 22%; in data set [8], 39%. Moreover, the Ratio IC50 in data set [4] came to 2.5. Besides, the IC50 against Cholinesterase [2] is 0.388 µM; on Acetylcholinesterase [3], > 100 µM; on Cholinesterase [6] it was 0.142 µM; at Acetylcholinesterase [7], > 100 µM.

Take `O=C1CCCC2=C1C(c1ccc(OCc3ccccc3)c(Br)c1)C1=C(CCCC1=O)N2`: the inhibition at 100 µM in data set [1] was 14%. Further, the IC50 against Cholinesterase [2] is 0.633 µM; against Acetylcholinesterase [3] it was > 100 µM.
